Test results published in a melting point compilation (Tetko et al.; mined from patent text by program, amines drawn as free bases though some values may be those of a salt).

melting point [°C]	SMILES
118 to 120	COc1ccc(C2=C(c3ccc(S(C)(=O)=O)cc3)CCC2)cc1Cl
149 to 151	CC(=O)N(C)CCc1ccc(C(=O)O)cc1
122 to 123	CCOc1ccc2[nH]ccc2c1OCc1ccccc1
198 to 200	O=C(Cc1ccsc1)N[C@H]1C[C@H](C(=O)O)Nc2cc(Cl)cc(Cl)c21 (relative stereo)
88	CC(C)(C)OC(=O)CNc1ccccc1C(=O)c1ccccc1
60 to 63	BrCCCOc1ccc(-c2ccccc2)cc1
189 to 192	CCCC1C(=O)N(S(=O)(=O)c2ccc3ccccc3c2)C2CCN(S(=O)(=O)CCCN3CCOCC3)C12 (stereo not given)
135 to 138	CC(C)NC(=O)Nc1cc(C(C)(C)C)on1
64 to 67	CC[C@H](C)[C@H](N)C(=O)NC(C)COc1ccc(C#N)cc1 (stereo not given in full)
143 to 146	Nc1nc(Cl)cc(NCCO)n1
85 to 86	COC(=O)C1CCc2sccc2C1=O (stereo not given)
174 to 176	Cc1c(-c2ccc(O)cc2)n(Cc2ccc(C#CCN3CCCC3)cc2)c2ccc(O)cc12
100 to 101	C=CCOC(=O)c1ccc(COC(=O)c2cc(C(C)(C)C)c(O)c(C(C)(C)C)c2)cc1
172 to 174	COc1ccc(-c2nc(Sc3ccc(C(C)(C)C)cc3)[nH]c2-c2ccc(OC)cc2)cc1
172 to 175	Fc1cc(F)cc(-c2cccc3[nH]c4c(c23)CCN(Cc2ccccc2)CC4)c1
87 to 90	Cc1ccc(S(=O)(=O)NO[Si](C)(C)C)cc1
179	CN(C)C(C)(C)c1ccc(-c2nc(Nc3ccc(F)cc3)ncc2C#N)cc1
114 to 116	CCOC(=O)c1cc2c(OCc3ccccc3)ccc3c(CC)c(-c4ccc(OCc5ccccc5)cc4)c1n23

melting point [°C]	SMILES
94 to 95	COC(=O)c1ccccc1Nc1cccc(C(C)O)c1Cl (stereo not given)
99 to 99.5	CN(C(=O)NN1CC=CCC1)c1ccccc1
80 to 82	CCCCCN1C(=O)C(=O)c2c(OC)cccc21
90 to 91	CCOC(=O)NC(=NCCCc1c[nH]cn1)NCCSCc1cccnc1
233 to 234	CCCCCCc1nc2cc3c(cc2[nH]1)NC(=O)C3(C)C
142 to 144	CCS(=O)(=O)N(C)[C@@H]1c2cc(C#N)ccc2OCC[C@H]1O (relative stereo)
115 to 116	CCc1ccc(OC(C)(C)C(=O)O)cc1OCCCc1cn(-c2ccc(C(F)(F)F)cn2)nc1C(C)C
36	O=C(Cl)Oc1ccc(-c2ccccc2)cc1
173 to 174	CC1(C)Oc2ccc(C#N)cc2[C@@H](N2CCCC2)[C@@H]1O (relative stereo)
217 to 218	O=C(Nc1n[nH]c(=S)s1)NC(Cc1ccccc1)C(=O)NCc1ccc(C(F)(F)F)cc1 (stereo not given)
142 to 143	CC(C)(C)OC(=O)N[C@H](Cc1c[nH]c2ccccc12)C(N)=O
223 to 225	Cn1c2cc(Cl)ccc2c(=O)c2c(Br)cccc21
67 to 72	CCCCCC(=O)OCn1cnc2c1c(=O)n(C)c(=O)n2C
152 to 154	O=S(=O)(c1ccc(-n2ncnc2-c2cnccn2)cc1)C(F)F
165 to 166	CN1C(NCCCO)=NC(c2ccccc2)c2cc(Cl)ccc21 (stereo not given)
228 to 231	COC(=O)c1cnn(C)c1C(=O)Nc1ccn2nc(-c3cccnc3)nc2c1
108 to 110	C[Si](C)(C)C#Cc1ccc(C2=CC(c3ccc(C#C[Si](C)(C)C)cc3)N(c3ccccc3)N2)cc1 (stereo not given)

SMILES	melting point [°C]
O=[N+]([O-])C1=C2N(Cc3ccc(Cl)nc3)CCN2C2CCCC1O2 (stereo not given)	175
O=C(Cl)N1Cc2ccccc2Oc2ccc(Cl)cc21	100 to 102
CCCC(=O)c1ccc2[nH]cc3c2c1CC(N(CCC)CCC)C3 (stereo not given)	151 to 153
Nc1ccc([N+](=O)[O-])cc1C(=O)c1ccccc1Cl	138 to 139
COC(=O)C1=C2Nc3ccccc3C23CCNC3CC1 (stereo not given)	145 to 148
